Data set [1] can be described thus: Cytotoxicity against human MRC5 cells after 72 hrs by MTT assay. Type of data set: cell-based.
The target in data set [2] is Adenosine kinase (Mycobacterium tuberculosis (strain CDC 1551 / Oshkosh), UniProt P9WID4). Put plainly: Inhibition of Mycobacterium tuberculosis ADK using [3H]-adenosine by scintillation counting method.
Data set [3] addresses T1, Adenosine kinase (Homo sapiens, UniProt P55263). Put plainly: Inhibition of human ADK using [3H]-adenosine by scintillation counting method.
Target sequence in this assay (P55263 whole entry): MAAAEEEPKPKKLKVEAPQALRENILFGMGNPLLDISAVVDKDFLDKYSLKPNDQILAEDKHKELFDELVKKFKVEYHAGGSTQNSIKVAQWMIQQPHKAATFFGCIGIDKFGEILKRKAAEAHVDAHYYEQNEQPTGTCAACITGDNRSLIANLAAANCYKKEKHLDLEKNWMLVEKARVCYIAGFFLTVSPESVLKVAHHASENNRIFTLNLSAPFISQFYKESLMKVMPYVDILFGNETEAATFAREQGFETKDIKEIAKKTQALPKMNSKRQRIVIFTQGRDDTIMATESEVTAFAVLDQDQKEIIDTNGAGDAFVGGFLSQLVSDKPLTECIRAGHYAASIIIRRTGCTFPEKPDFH
In data set [4] the target is Adenosine kinase (Mycobacterium tuberculosis (strain CDC 1551 / Oshkosh)) (UniProt P9WID4). Put plainly: Activity of Mycobacterium tuberculosis ADK assessed as compound conversion to 5'-phosphate form incubated at 37 degC for 20 mins by HPLC method.
Adenosine kinase (Mycobacterium tuberculosis (strain CDC 1551 / Oshkosh)), sequence (P9WID4 2-324 limits assumed): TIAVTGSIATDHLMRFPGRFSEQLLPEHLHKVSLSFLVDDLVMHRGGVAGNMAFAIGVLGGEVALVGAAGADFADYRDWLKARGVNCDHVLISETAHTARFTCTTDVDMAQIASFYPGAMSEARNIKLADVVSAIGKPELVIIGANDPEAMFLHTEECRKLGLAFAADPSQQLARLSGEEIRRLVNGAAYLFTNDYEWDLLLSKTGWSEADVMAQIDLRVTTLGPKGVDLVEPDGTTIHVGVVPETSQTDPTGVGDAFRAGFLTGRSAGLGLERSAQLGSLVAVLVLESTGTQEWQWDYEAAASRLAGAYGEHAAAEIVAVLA
A short description of data set [5]: Cytotoxicity against human BJ cells after 72 hrs by MTT assay. Type of data set: cell-based.
Data set [6] has as its target T1, Adenosine kinase. Put plainly: Activity of human ADK assessed as compound conversion to 5'-phosphate form incubated at 37 degC for 20 mins by HPLC method. The arrangement: concentration or dose not given beside the values.
Target sequence in this assay (P55263 2-362 limits assumed): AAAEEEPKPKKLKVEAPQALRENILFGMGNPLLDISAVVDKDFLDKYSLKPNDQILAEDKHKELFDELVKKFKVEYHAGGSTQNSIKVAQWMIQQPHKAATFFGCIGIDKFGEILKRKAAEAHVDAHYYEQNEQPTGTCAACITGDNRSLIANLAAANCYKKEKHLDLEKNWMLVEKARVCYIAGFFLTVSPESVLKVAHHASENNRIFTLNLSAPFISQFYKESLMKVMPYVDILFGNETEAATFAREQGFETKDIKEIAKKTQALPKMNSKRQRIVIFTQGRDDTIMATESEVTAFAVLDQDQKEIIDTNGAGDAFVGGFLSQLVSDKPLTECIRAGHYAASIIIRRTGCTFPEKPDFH

Active and inactive are the calls of the source. The rule behind the calls is not given here. Bounds are passed on as bounds.

Adenosine kinase (Mycobacterium tuberculosis (strain CDC 1551 / Oshkosh), UniProt P9WID4), sequence (P9WID4 whole entry): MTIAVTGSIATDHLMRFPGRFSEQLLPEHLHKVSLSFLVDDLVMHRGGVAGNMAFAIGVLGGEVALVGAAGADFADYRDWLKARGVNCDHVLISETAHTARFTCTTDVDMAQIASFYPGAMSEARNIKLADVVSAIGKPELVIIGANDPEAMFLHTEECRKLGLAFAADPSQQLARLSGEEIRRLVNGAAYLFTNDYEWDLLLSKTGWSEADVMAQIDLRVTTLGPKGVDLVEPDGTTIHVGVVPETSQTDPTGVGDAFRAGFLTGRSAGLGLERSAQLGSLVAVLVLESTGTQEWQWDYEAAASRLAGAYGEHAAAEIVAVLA

Consider `OC[C@H]1O[C@@H](n2cc(Cl)c3c(-c4ccc(F)cc4)ncnc32)[C@H](O)[C@@H]1O`, for which the values for the CC50 at 72 h in data set [1] and in data set [5] were greater than 50 µM and 49.5 µM, respectively. Besides, the figures for the IC50 in data set [2] and in data set [3] were 0.4 µM and greater than 20 µM, respectively. Besides, the outcome in data set [4] was inactive.

Take `CCCCCCCCCCCCCCCCCCOP(=O)(O)OC[C@H]1O[C@@H](n2ccc3c(-c4ccccc4)ncnc32)[C@H](O)[C@@H]1O`: the CC50 at 72 h in data set [1] and in data set [5] was greater than 50 µM throughout. The IC50 in data set [2] was greater than 20 µM; in data set [3], 4.4 µM. In addition, the outcome in data set [4] was inactive.

For the compound `OC[C@H]1O[C@@H](n2ccc3c(-c4cn[nH]c4)ncnc32)[C@H](O)[C@@H]1O`, the values for the CC50 at 72 h in data set [1] and in data set [5] were greater than 50 µM and 42.1 µM, respectively. In data set [6], the Activity was 7%. Moreover, the concentration for half-maximal inhibition (IC50) was 0.67 µM in data set [2] and greater than 20 µM in data set [3]. Besides, the result in data set [4] was inactive.

On to `OC[C@H]1O[C@@H](n2ccc3c(-c4nccs4)ncnc32)[C@H](O)[C@@H]1O`, for which the CC50 at 72 h in data set [1] came to 37 µM; in data set [5], 0.26 µM. The Activity in data set [6] amounted to 41%. The IC50 is 0.023 µM in data set [2] and greater than 20 µM in data set [3]. For the same compound, the outcome in data set [4] was inactive.

For `OC[C@H]1O[C@@H](n2ccc3c(-c4cc[nH]c4)ncnc32)[C@H](O)[C@@H]1O`, the half-maximal cytotoxic concentration (CC50) at 72 h in data set [1] worked out at 40.1 µM; in data set [5] it was 1.87 µM. In data set [6], the Activity was found to be 70%. Further, the IC50 in data set [2] was 0.3 µM; in data set [3], greater than 10 µM. For the same compound, in data set [4], the result was inactive.

On to `OC[C@H]1O[C@@H](n2cc(Cl)c3c(-c4cccs4)ncnc32)[C@H](O)[C@@H]1O`, for which the CC50 at 72 h in data set [1] was greater than 50 µM; in data set [5] it was 4.97 µM. The Activity in data set [6] was found to be 100%. In addition, the IC50 in data set [2] came to 0.07 µM; in data set [3], 1.2 µM. The outcome in data set [4] was inactive.

Take `OC[C@H]1O[C@@H](n2ccc3c(-c4cccnc4)ncnc32)[C@H](O)[C@@H]1O`: the CC50 at 72 h in data set [1] was greater than 50 µM; in data set [5] it was 50 µM. The IC50 in data set [2] was 1 µM; in data set [3], greater than 10 µM. The outcome in data set [4] was inactive.

Regarding `CCCCCCCCCCCCCCCCCCOP(=O)(O)OC[C@H]1O[C@@H](n2ccc3c(-c4ccoc4)ncnc32)[C@H](O)[C@@H]1O`, the CC50 at 72 h in data set [1] was greater than 50 µM; in data set [5], 44.2 µM. For the same compound, the IC50 in data set [2] is greater than 20 µM; in data set [3], 5.15 µM. In addition, the outcome in data set [4] was inactive.

Take `OC[C@H]1O[C@@H](n2ccc3c(-c4cccs4)ncnc32)[C@H](O)[C@@H]1O`: the values for the CC50 at 72 h in data set [1] and in data set [5] were greater than 50 µM and 0.31 µM, respectively. Moreover, the IC50 is 0.046 µM in data set [2] and greater than 5 µM in data set [3]. Further, the outcome in data set [4] was inactive.

On to `OC[C@H]1O[C@@H](n2cc(Cl)c3c(-c4ccoc4)ncnc32)[C@H](O)[C@@H]1O`, for which the CC50 at 72 h was greater than 50 µM in data set [1] and 21.6 µM in data set [5]. For the same compound, the Activity in data set [6] was 100%. Also, the IC50 in data set [2] came out at 0.3 µM; in data set [3], 3.4 µM. Besides, the result in data set [4] was inactive.

For the compound `OC[C@H]1O[C@@H](n2cc(F)c3c(-c4ccccc4)ncnc32)[C@H](O)[C@@H]1O`, the CC50 at 72 h in data set [1] and in data set [5] was greater than 50 µM each time. In addition, the Activity in data set [6] worked out at 17%. The values for the IC50 in data set [2] and in data set [3] were 0.2 µM and greater than 10 µM, respectively. Besides, the outcome in data set [4] was inactive.

`CCCCCCCCCCCCCCCCCCOP(=O)(O)OC[C@H]1O[C@@H](n2ccc3c(-c4ccsc4)ncnc32)[C@H](O)[C@@H]1O`: the CC50 at 72 h in data set [1] and in data set [5] was greater than 50 µM in each case. In addition, the IC50 was greater than 20 µM in data set [2] and 6.35 µM in data set [3]. In data set [4], the result was inactive.

As for `OC[C@H]1O[C@@H](n2ccc3c(-c4cc5ccccc5[nH]4)ncnc32)[C@H](O)[C@@H]1O`, the CC50 at 72 h in data set [1] and in data set [5] was greater than 50 µM throughout. The IC50 in data set [2] was 0.04 µM; in data set [3], 8.35 µM. The result in data set [4] was inactive.

Turning to `CCc1ncnc2c1ccn2[C@@H]1O[C@H](CO)[C@@H](O)[C@H]1O`, the CC50 at 72 h in data set [1] amounted to 50 µM; in data set [5], 2.7 µM. Moreover, the IC50 in data set [2] is 8.1 µM; in data set [3], greater than 20 µM. Further, in data set [4], the result was inactive.

As for `OC[C@H]1O[C@@H](n2ccc3c(-c4ccco4)ncnc32)[C@H](O)[C@@H]1O`, the CC50 at 72 h in data set [1] was 11.8 µM; in data set [5], 0.23 µM. In data set [6], the Activity came out at 56%. For the same compound, the values for the IC50 in data set [2] and in data set [3] were 0.32 µM and 1.3 µM, respectively. The result in data set [4] was inactive.

`OC[C@H]1O[C@@H](n2cc(F)c3c(-c4nccs4)ncnc32)[C@H](O)[C@@H]1O`: the CC50 at 72 h in data set [1] was greater than 50 µM; in data set [5] it was 0.63 µM. Also, the Activity in data set [6] came out at 75%. Also, the IC50 in data set [2] is 0.028 µM; in data set [3], greater than 20 µM. In addition, the result in data set [4] was inactive.

On to `OC[C@H]1O[C@@H](n2ccc3c(-c4ccccn4)ncnc32)[C@H](O)[C@@H]1O`, for which the results for the CC50 at 72 h in data set [1] and in data set [5] were greater than 50 µM and 1.74 µM, respectively. For the same compound, in data set [6], the Activity was found to be 39%. In addition, the IC50 in data set [2] is 0.12 µM; in data set [3], greater than 10 µM. Moreover, in data set [4], the result was inactive.

For the compound `COc1ccc(-c2ncnc3c2ccn3[C@@H]2O[C@H](CO)[C@@H](O)[C@H]2O)cc1`, the CC50 at 72 h in data set [1] and in data set [5] was greater than 50 µM throughout. For the same compound, the IC50 in data set [2] is 0.058 µM; in data set [3] it was greater than 10 µM. In addition, the outcome in data set [4] was inactive.

Regarding `OC[C@H]1O[C@@H](n2ccc3c(-c4ccn[nH]4)ncnc32)[C@H](O)[C@@H]1O`, the values for the CC50 at 72 h in data set [1] and in data set [5] were 1.16 µM and 43.9 µM, respectively. Moreover, the Activity in data set [6] stood at 31%. Moreover, the IC50 in data set [2] is 0.059 µM; in data set [3], greater than 20 µM. Moreover, the outcome in data set [4] was inactive.

`OC[C@H]1O[C@@H](n2ccc3c(-c4ccc(F)cc4)ncnc32)[C@H](O)[C@@H]1O`: the CC50 at 72 h in data set [1] and in data set [5] was greater than 50 µM in each case. Further, the Activity in data set [6] was 17%. For the same compound, the IC50 in data set [2] is 0.08 µM; in data set [3], greater than 10 µM. The result in data set [4] was inactive.

In the case of `OC[C@H]1O[C@@H](n2ccc3c(-c4cccc5c4oc4ccccc45)ncnc32)[C@H](O)[C@@H]1O`, the CC50 at 72 h in data set [1] and in data set [5] was greater than 50 µM throughout. Besides, the values for the IC50 in data set [2] and in data set [3] were 2.35 µM and 5.26 µM, respectively. The result in data set [4] was inactive.

Take `OC[C@H]1O[C@@H](n2ccc3c(-c4cccc5c4Oc4ccccc4S5)ncnc32)[C@H](O)[C@@H]1O`: the CC50 at 72 h in data set [1] and in data set [5] was greater than 50 µM each time. The IC50 in data set [2] turned out to be 1.46 µM; in data set [3] it was 3.07 µM. The outcome in data set [4] was inactive.

As to `OC[C@H]1O[C@@H](n2ccc3c(-c4cc5ccccc5s4)ncnc32)[C@H](O)[C@@H]1O`, the CC50 at 72 h in data set [1] and in data set [5] was greater than 50 µM in each case. In addition, the figures for the IC50 in data set [2] and in data set [3] were 0.0075 µM and 0.3 µM, respectively. Also, the result in data set [4] was inactive.

Regarding `OC[C@H]1O[C@@H](n2cc(F)c3c(-c4ccoc4)ncnc32)[C@H](O)[C@@H]1O`, the CC50 at 72 h in data set [1] stood at 15.4 µM; in data set [5], 0.35 µM. Moreover, the IC50 in data set [2] is 0.15 µM; in data set [3], greater than 10 µM. In addition, the result in data set [4] was inactive.

Take `CCCCCCCCCCCCCCCCCCOP(=O)(O)OC[C@H]1O[C@@H](n2ccc3c(-c4cccs4)ncnc32)[C@H](O)[C@@H]1O`: the IC50 in data set [2] was greater than 20 µM; in data set [3] it was 1.97 µM. Also, in data set [4], the result was inactive.

On to `OC[C@H]1O[C@@H](n2ccc3c(Cc4ccccc4)ncnc32)[C@H](O)[C@@H]1O`, for which the CC50 at 72 h in data set [1] was greater than 50 µM; in data set [5], 36.9 µM. Besides, the IC50 in data set [2] and in data set [3] was greater than 20 µM in each case. The outcome in data set [4] was inactive.

Regarding `OC[C@H]1O[C@@H](n2ccc3c(-c4ccccc4)ncnc32)[C@H](O)[C@@H]1O`, the CC50 at 72 h in data set [1] is greater than 50 µM; in data set [5] it was 44.1 µM. Also, the IC50 in data set [2] is 0.12 µM; in data set [3] it was greater than 10 µM. Besides, in data set [4], the outcome was inactive.

With `CCCCCCCCCCCCCCCCCCOP(=O)(O)OC[C@H]1O[C@@H](n2ccc3c(-c4ccco4)ncnc32)[C@H](O)[C@@H]1O`, the CC50 at 72 h in data set [1] is 45.3 µM; in data set [5], greater than 50 µM. Also, the IC50 in data set [2] was greater than 20 µM; in data set [3] it was 2.4 µM. The outcome in data set [4] was inactive.

Take `OC[C@H]1O[C@@H](n2ccc3c(-c4cccc5c4sc4ccccc45)ncnc32)[C@H](O)[C@@H]1O`: the results for the half-maximal cytotoxic concentration (CC50) at 72 h in data set [1] and in data set [5] were 43.8 µM and greater than 50 µM, respectively. The results for the IC50 in data set [2] and in data set [3] were 0.15 µM and 15.4 µM, respectively. Moreover, in data set [4], the result was inactive.

Consider `OC[C@H]1O[C@@H](n2ccc3c(-c4cc5ccccc5o4)ncnc32)[C@H](O)[C@@H]1O`, for which the CC50 at 72 h in data set [1] and in data set [5] was greater than 50 µM throughout. Moreover, the IC50 came out at 0.0145 µM in data set [2] and 2.1 µM in data set [3]. The outcome in data set [4] was inactive.

Turning to `CCCCCCCCCCCCCCCCCCOP(=O)(O)OC[C@H]1O[C@@H](n2ccc3c(-c4cc5ccccc5o4)ncnc32)[C@H](O)[C@@H]1O`, the CC50 at 72 h in data set [1] and in data set [5] was greater than 50 µM throughout. The half-inhibitory concentration (IC50) in data set [2] is greater than 20 µM; in data set [3], 2.9 µM. Besides, the result in data set [4] was inactive.

Values taken from ChEMBL document CHEMBL3132858, “6-Alkyl-, 6-aryl- or 6-hetaryl-7-deazapurine ribonucleosides as inhibitors of human or MTB adenosine kinase and potential antimycobacterial agents” (Medchemcomm, 2013).
